Converted amounts (≈) assume the structure as drawn. Like-named read-outs stand apart in the source and are kept apart here.
How the values were obtained:
[1] = system: yeast Y229-1 (PCDC48 (SEQ ID NO: 53)-PH05-Renlla Luciferase); test: IC90 calculated from Renilla luciferase light output (baseline promoter reporter); assay type: cell-based, Saccharomyces cerevisiae; conditions: 24 hours at 30° C., YPD, 1% DMSO
[2] = system: yeast Y229-1 (PCDC48 (SEQ ID NO: 53)-PH05-Renlla Luciferase); test: MIC determined visually; assay type: cell-based, Saccharomyces cerevisiae; conditions: minimum inhibitor concentration at which there is an approximately 90% drop in cell number relative to the uninhibited control
[3] = Saccharomyces cerevisiae, inhibitor concentration at which there is a 90% drop in luciferase signal relative to the uninhibited control, read-out: IC90
[4] = Saccharomyces cerevisiae, read-out: MIC

SMILES	IC90 [1, 3]	MIC [2, 4]	IC90 ([1]; inhibitor concentration at which there is a 90% drop in luciferase signal relative to the uninhibited control)	MIC [2]	IC90 ([1]; Saccharomyces cerevisiae, […], read-out: IC90)
Nc1nc(=O)[nH]cc1F [5FC, 5-fluorocytosine]	1.9 µg/mL (≈ 14.7 µM)	2.5 µg/mL (≈ 19.4 µM)			
C[C@@H]1[C@H](O)[C@@H](C)/C=C/C=C/C=C/C=C/C=C/C=C/C=C/[C@H](O[C@@H]2O[C@H](C)[C@@H](O)[C@H](N)[C@@H]2O)C[C@@H]2O[C@](O)(C[C@@H](O)C[C@@H](O)[C@H](O)CC[C@@H](O)C[C@@H](O)CC(=O)O[C@H]1C)C[C@H](O)[C@H]2C(=O)O [AMB, amphotericin B]			0.3 µg/mL (≈ 0.325 µM)	0.3 µg/mL (≈ 0.325 µM)	
CC[C@H](C)C[C@H](C)CCCCCCCCC(=O)N[C@H]1C[C@@H](O)[C@@H](NCCN)NC(=O)[C@@H]2[C@@H](O)CCN2C(=O)[C@H]([C@H](O)CCN)NC(=O)[C@H]([C@H](O)[C@@H](O)c2ccc(O)cc2)NC(=O)[C@@H]2C[C@@H](O)CN2C(=O)[C@H]([C@@H](C)O)NC1=O [CSP, caspofungin]		0.015 µg/mL (≈ 0.0137 µM)			0.02 µg/mL (≈ 0.0183 µM)
OC(Cn1cncn1)(Cn1cncn1)c1ccc(F)cc1F [FLU, fluconazole]	0.3 µg/mL (≈ 0.98 µM)	0.2 µg/mL (≈ 0.653 µM)			
CN(C/C=C/C#CC(C)(C)C)Cc1cccc2ccccc12 [TRB, terbinafine]	1.4 µg/mL (≈ 4.8 µM)	1.56 µg/mL (≈ 5.35 µM)			
C[C@@H](c1ncncc1F)[C@](O)(Cn1cncn1)c1ccc(F)cc1F [VOR, voriconazole]	0.008 µg/mL (≈ 0.0229 µM)	0.015 µg/mL (≈ 0.0429 µM)			
